Data reported in ChEMBL document CHEMBL3393036, “Tetra-substituted pyridinylimidazoles as dual inhibitors of p38α mitogen-activated protein kinase and c-Jun N-terminal kinase 3 for potential treatment of neurodegenerative diseases” (J Med Chem, 2015).

Legend:
[1] = target: Mitogen-activated protein kinase 14 (Homo sapiens, UniProt Q16539); experiment: Inhibition of p38alpha (unknown origin) assessed as phosphorylation of ATF-2 by ELISA
[2] = target: Tyrosine-protein kinase ABL1 (Homo sapiens) (UniProt P00519); experiment: Inhibition of ABL1 (unknown origin) at 5.5 uM by Caliper Mobility Shift Assay
[3] = target: Tyrosine-protein kinase JAK1 (Homo sapiens) (UniProt P23458); experiment: Inhibition of JAK1 (unknown origin) at 5.5 uM by Caliper Mobility Shift Assay
[4] = target: T1, Activin receptor type-1 (Homo sapiens) (UniProt Q04771); experiment: Inhibition of ALK2 (unknown origin) assessed as phosphorylation of ATF-2 at 5.5 uM by ELISA
T1 sequence (whole entry): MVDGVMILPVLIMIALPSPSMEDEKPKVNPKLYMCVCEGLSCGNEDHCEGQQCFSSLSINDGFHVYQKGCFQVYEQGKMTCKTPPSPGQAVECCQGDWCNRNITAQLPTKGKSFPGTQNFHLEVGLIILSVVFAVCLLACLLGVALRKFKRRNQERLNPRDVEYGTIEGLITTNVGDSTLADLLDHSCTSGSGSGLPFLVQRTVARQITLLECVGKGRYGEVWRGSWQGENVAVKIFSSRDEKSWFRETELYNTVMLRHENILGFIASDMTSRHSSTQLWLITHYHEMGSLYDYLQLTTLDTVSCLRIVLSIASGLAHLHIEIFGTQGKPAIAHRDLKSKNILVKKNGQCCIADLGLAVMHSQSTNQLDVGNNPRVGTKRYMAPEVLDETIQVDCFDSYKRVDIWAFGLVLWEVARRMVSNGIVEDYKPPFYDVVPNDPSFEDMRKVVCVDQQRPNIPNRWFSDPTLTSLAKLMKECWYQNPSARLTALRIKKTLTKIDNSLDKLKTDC

[5] = target: Epidermal growth factor receptor (Homo sapiens) (UniProt P00533); experiment: Inhibition of EGFR (unknown origin) assessed as phosphorylation of ATF-2 at 5.5 uM by ELISA
Sequence of Epidermal growth factor receptor (Homo sapiens) (P00533 whole entry): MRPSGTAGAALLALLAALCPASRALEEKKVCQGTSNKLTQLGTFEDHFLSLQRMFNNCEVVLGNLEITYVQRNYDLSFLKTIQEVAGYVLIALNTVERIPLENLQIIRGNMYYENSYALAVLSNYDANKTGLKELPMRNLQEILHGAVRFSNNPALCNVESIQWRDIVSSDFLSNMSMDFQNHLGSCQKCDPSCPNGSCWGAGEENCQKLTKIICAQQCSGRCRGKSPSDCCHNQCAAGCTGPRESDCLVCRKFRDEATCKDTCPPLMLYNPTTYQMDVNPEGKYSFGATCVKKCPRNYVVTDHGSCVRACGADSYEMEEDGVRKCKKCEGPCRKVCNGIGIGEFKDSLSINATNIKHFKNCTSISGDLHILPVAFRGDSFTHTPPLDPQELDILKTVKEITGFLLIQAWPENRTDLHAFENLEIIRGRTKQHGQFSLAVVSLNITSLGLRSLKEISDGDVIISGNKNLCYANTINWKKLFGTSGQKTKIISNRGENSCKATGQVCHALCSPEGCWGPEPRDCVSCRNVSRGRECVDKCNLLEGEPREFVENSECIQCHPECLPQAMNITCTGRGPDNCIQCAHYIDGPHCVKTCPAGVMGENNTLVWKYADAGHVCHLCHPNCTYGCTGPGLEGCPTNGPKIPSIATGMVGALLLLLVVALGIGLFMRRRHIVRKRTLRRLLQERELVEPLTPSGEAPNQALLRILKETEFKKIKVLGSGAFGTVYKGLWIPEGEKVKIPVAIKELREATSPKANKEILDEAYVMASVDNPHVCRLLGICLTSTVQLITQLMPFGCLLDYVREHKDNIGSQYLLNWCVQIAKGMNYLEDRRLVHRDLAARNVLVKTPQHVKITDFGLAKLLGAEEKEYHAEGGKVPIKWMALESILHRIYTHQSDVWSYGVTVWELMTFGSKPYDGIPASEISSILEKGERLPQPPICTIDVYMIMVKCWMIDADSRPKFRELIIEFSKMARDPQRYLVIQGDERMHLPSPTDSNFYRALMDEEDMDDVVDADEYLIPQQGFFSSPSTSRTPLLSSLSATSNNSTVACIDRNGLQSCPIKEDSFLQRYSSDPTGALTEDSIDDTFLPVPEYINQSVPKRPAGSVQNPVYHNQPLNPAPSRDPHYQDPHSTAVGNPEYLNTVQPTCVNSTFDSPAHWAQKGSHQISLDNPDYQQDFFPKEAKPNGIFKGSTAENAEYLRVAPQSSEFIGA

Sequence of Mitogen-activated protein kinase 14 (Q16539 whole entry): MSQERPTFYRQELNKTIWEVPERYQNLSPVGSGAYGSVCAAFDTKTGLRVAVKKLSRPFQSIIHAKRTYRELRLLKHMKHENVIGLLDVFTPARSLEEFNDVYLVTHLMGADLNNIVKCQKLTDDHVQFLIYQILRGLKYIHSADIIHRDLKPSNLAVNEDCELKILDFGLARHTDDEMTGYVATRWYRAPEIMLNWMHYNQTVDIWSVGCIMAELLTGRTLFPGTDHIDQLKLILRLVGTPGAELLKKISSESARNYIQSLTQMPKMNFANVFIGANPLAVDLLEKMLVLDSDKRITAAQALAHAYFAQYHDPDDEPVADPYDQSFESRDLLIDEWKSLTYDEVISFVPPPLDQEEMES
Sequence of Tyrosine-protein kinase ABL1 (Homo sapiens) (P00519 whole entry): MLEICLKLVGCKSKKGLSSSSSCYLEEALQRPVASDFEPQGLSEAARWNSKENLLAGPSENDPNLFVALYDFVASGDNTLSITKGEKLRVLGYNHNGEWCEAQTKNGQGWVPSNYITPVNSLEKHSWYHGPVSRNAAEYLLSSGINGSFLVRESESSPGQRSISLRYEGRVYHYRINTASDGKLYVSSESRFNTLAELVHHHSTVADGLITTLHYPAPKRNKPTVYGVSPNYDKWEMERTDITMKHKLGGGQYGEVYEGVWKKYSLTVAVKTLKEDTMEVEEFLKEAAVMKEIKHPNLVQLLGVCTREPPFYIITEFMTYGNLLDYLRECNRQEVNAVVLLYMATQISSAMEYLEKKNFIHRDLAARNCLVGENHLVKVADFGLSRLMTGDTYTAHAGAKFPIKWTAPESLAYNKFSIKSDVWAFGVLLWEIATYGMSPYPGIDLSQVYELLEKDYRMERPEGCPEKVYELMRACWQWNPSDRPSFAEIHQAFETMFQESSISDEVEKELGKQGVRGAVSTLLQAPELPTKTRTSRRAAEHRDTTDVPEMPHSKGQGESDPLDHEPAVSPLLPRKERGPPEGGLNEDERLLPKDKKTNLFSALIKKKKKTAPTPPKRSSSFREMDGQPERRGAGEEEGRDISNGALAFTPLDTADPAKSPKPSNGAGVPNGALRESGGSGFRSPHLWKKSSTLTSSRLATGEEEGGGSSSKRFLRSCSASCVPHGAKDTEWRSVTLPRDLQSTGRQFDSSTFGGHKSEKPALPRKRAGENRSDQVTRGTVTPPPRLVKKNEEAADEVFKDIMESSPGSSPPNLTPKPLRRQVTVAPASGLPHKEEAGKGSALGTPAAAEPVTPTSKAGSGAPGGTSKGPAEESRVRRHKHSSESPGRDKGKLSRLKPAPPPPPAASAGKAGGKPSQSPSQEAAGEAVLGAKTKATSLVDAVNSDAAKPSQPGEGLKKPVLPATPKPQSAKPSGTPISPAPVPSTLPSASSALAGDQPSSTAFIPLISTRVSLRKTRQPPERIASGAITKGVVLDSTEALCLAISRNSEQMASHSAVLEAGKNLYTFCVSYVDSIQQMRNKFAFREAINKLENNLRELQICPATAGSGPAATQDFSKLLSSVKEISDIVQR
Sequence of Tyrosine-protein kinase JAK1 (Homo sapiens) (P23458 whole entry): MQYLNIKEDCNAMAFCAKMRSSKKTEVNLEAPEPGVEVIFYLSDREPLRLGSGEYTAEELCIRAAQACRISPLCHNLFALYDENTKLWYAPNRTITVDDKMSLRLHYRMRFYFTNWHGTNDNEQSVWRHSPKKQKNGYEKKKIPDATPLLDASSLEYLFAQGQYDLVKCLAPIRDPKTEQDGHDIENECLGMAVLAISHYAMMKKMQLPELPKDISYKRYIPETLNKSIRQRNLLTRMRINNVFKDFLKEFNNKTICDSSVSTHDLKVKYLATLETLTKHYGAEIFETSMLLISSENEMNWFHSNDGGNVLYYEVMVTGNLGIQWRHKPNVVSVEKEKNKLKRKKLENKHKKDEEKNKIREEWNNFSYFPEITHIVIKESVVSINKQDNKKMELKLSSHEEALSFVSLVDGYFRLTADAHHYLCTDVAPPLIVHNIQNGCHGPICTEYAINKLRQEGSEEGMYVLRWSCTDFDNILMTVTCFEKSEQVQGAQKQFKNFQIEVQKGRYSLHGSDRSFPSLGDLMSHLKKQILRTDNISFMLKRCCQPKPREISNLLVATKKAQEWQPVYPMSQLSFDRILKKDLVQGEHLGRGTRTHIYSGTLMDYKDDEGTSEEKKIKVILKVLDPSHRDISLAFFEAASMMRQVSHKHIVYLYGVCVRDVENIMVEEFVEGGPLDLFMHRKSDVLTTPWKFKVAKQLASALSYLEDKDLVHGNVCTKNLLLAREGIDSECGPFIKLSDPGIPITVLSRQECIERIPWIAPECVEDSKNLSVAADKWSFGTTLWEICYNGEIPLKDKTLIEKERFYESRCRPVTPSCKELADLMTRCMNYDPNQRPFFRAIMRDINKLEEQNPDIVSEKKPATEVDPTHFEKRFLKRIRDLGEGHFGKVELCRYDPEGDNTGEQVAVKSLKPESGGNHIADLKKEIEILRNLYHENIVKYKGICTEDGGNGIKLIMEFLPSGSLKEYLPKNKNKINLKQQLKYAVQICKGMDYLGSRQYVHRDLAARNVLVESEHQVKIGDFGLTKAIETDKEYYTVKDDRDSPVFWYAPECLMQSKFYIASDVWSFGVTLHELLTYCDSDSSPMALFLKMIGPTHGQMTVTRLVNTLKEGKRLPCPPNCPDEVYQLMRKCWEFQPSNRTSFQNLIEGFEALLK

Row | Structure (SMILES) | IC50 [1] [nM] | inhibition [2] [%] | inhibition [3] [%] | inhibition [4] [%] | inhibition [5] [%]
1 | CC(=O)Nc1cc(-c2c(-c3ccc(F)cc3)nc(S/C=C\C(=O)O)n2C2CCCCC2)ccn1 | 165 | < 50 | < 50 | – | –
2 | CC(=O)Nc1cc(-c2c(-c3ccc(F)cc3)nc(Sc3cccc(I)n3)n2C2CCCCC2)ccn1 | 356 | < 50 | < 50 | – | –
3 | CC(=O)Nc1cc(-c2c(-c3ccc(F)cc3)nc(S/C=C\C(=O)O)n2CC2CCCO2)ccn1 (racemic) | 223 | < 50 | < 50 | – | –
4 | CC(=O)Nc1cc(-c2c(-c3ccc(F)cc3)nc(S/C=C\C(=O)O)n2C2CC2)ccn1 | 123 | < 50 | < 50 | 60.6 | 51.8
5 | COC(Cn1c(SC2CCC(C(=O)O)CC2O)nc(-c2ccc(F)cc2)c1-c1ccnc(NC(C)=O)c1)OC (configuration not stated) | 135 | < 50 | < 50 | – | –
